# Measurements from ChEMBL document CHEMBL5724914, “Linking interpersonal differences in gut microbiota composition and drug biotransformation activity” (2024).
# Assay: (§1) The drug is tested on Z-021 corresponding to metagenome with ENA study accession number: PRJEB37062 and ENA sample accession number: ERS12561820 for biotransformation under anaerobic condition. The drug concentrations were measured over 9 timepoints collected between 0 and 24 hours of incubation by liquid-chromatography-coupled mass spectrometry (LC–MS)
# Details: 2 µM
# Also: call rule not given here.
row,Bacterial Biotransformation,Structure (SMILES)
1,Compound NOT metabolized,c1ccc2[nH]c(-c3cscn3)nc2c1 [THIABENDAZOLE]
2,Compound NOT metabolized,CCN(CC)CCNC(=O)c1cc(S(C)(=O)=O)ccc1OC [TIAPRIDE]

# Assay: (§2) The drug is tested on Z-019 corresponding to rat gut metagenome with ENA study accession number: PRJEB37062 and ENA sample accession number: ERS12561818 for biotransformation under anaerobic condition. The drug concentrations were measured over 9 timepoints collected between 0 and 24 hours of incubation by liquid-chromatography-coupled mass spectrometry (LC–MS)
# Details: 2 µM
row,Bacterial Biotransformation,Structure (SMILES)
1,Compound NOT metabolized,c1ccc2[nH]c(-c3cscn3)nc2c1 [THIABENDAZOLE]
2,Compound NOT metabolized,CCN(CC)CCNC(=O)c1cc(S(C)(=O)=O)ccc1OC [TIAPRIDE]

# Assay: as §2, with “on Z-018” for “on Z-019”, “to pig” for “to rat”, “number: ERS12561817” for “number: ERS12561818”
# Details: 2 µM
row,Bacterial Biotransformation,Structure (SMILES)
1,Compound NOT metabolized,c1ccc2[nH]c(-c3cscn3)nc2c1 [THIABENDAZOLE]
2,Compound NOT metabolized,CCN(CC)CCNC(=O)c1cc(S(C)(=O)=O)ccc1OC [TIAPRIDE]

# Assay: as §2, with “on Z-017” for “on Z-019”, “to mouse” for “to rat”, “number: ERS12561816” for “number: ERS12561818”
# Details: 2 µM
row,Bacterial Biotransformation,Structure (SMILES)
1,Compound NOT metabolized,c1ccc2[nH]c(-c3cscn3)nc2c1 [THIABENDAZOLE]
2,Compound NOT metabolized,CCN(CC)CCNC(=O)c1cc(S(C)(=O)=O)ccc1OC [TIAPRIDE]

# Assay: as §2, with “Z-014” for “Z-019”, “ERS12561814” for “ERS12561818”
# Details: 2 µM
row,Bacterial Biotransformation,Structure (SMILES)
1,Compound NOT metabolized,c1ccc2[nH]c(-c3cscn3)nc2c1 [THIABENDAZOLE]
2,Compound NOT metabolized,CCN(CC)CCNC(=O)c1cc(S(C)(=O)=O)ccc1OC [TIAPRIDE]

# Assay: as §1, with “Z-010” for “Z-021”, “ERS12561810” for “ERS12561820”
# Details: 2 µM
row,Bacterial Biotransformation,Structure (SMILES)
1,Compound NOT metabolized,c1ccc2[nH]c(-c3cscn3)nc2c1 [THIABENDAZOLE]
2,Compound NOT metabolized,CCN(CC)CCNC(=O)c1cc(S(C)(=O)=O)ccc1OC [TIAPRIDE]

# Assay: as §1, with “Z-005” for “Z-021”, “ERS12561805” for “ERS12561820”
# Details: 2 µM
row,Bacterial Biotransformation,Structure (SMILES)
1,Compound NOT metabolized,c1ccc2[nH]c(-c3cscn3)nc2c1 [THIABENDAZOLE]
2,Compound NOT metabolized,CCN(CC)CCNC(=O)c1cc(S(C)(=O)=O)ccc1OC [TIAPRIDE]

# Assay: as §2, with “on Z-001” for “on Z-019”, “to mouse” for “to rat”, “number: ERS12561801” for “number: ERS12561818”
# Details: 2 µM
row,Bacterial Biotransformation,Structure (SMILES)
1,Compound NOT metabolized,c1ccc2[nH]c(-c3cscn3)nc2c1 [THIABENDAZOLE]
2,Compound metabolized,CCN(CC)CCNC(=O)c1cc(S(C)(=O)=O)ccc1OC [TIAPRIDE]

# Assay: as §2, with “on WLS-170” for “on Z-019”, “to human” for “to rat”, “number: ERS12561762” for “number: ERS12561818”
# Details: 2 µM
row,Bacterial Biotransformation,Structure (SMILES)
1,Compound NOT metabolized,c1ccc2[nH]c(-c3cscn3)nc2c1 [THIABENDAZOLE]
2,Compound NOT metabolized,CCN(CC)CCNC(=O)c1cc(S(C)(=O)=O)ccc1OC [TIAPRIDE]

# Assay: as §2, with “on WLS-090” for “on Z-019”, “to human” for “to rat”, “number: ERS12561753” for “number: ERS12561818”
# Details: 2 µM
row,Bacterial Biotransformation,Structure (SMILES)
1,Compound metabolized,c1ccc2[nH]c(-c3cscn3)nc2c1 [THIABENDAZOLE]
2,Compound metabolized,CCN(CC)CCNC(=O)c1cc(S(C)(=O)=O)ccc1OC [TIAPRIDE]

# Assay: as §2, with “on WLS-086” for “on Z-019”, “to human” for “to rat”, “number: ERS12561752” for “number: ERS12561818”
# Details: 2 µM
row,Bacterial Biotransformation,Structure (SMILES)
1,Compound metabolized,c1ccc2[nH]c(-c3cscn3)nc2c1 [THIABENDAZOLE]
2,Compound NOT metabolized,CCN(CC)CCNC(=O)c1cc(S(C)(=O)=O)ccc1OC [TIAPRIDE]

# Assay: as §2, with “on WLS-082” for “on Z-019”, “to human” for “to rat”, “number: ERS12561751” for “number: ERS12561818”
# Details: 2 µM
row,Bacterial Biotransformation,Structure (SMILES)
1,Compound NOT metabolized,c1ccc2[nH]c(-c3cscn3)nc2c1 [THIABENDAZOLE]
2,Compound NOT metabolized,CCN(CC)CCNC(=O)c1cc(S(C)(=O)=O)ccc1OC [TIAPRIDE]

# Assay: as §2, with “on WLS-039” for “on Z-019”, “to human” for “to rat”, “number: ERS12561746” for “number: ERS12561818”
# Details: 2 µM
row,Bacterial Biotransformation,Structure (SMILES)
1,Compound NOT metabolized,c1ccc2[nH]c(-c3cscn3)nc2c1 [THIABENDAZOLE]
2,Compound NOT metabolized,CCN(CC)CCNC(=O)c1cc(S(C)(=O)=O)ccc1OC [TIAPRIDE]

# Assay: as §2, with “on WLS-027” for “on Z-019”, “to human” for “to rat”, “number: ERS12561744” for “number: ERS12561818”
# Details: 2 µM
row,Bacterial Biotransformation,Structure (SMILES)
1,Compound NOT metabolized,c1ccc2[nH]c(-c3cscn3)nc2c1 [THIABENDAZOLE]
2,Compound NOT metabolized,CCN(CC)CCNC(=O)c1cc(S(C)(=O)=O)ccc1OC [TIAPRIDE]

# Details: human gut metagenome, 24 h, 2 µM
row,Bacterial Biotransformation,Structure (SMILES)
1,Compound NOT metabolized,c1ccc2[nH]c(-c3cscn3)nc2c1 [THIABENDAZOLE]
2,Compound NOT metabolized,CCN(CC)CCNC(=O)c1cc(S(C)(=O)=O)ccc1OC [TIAPRIDE]

# Details: human gut metagenome, 24 h, 2 µM
# Remark: another data set of the same source
row,Bacterial Biotransformation,Structure (SMILES)
1,Compound NOT metabolized,c1ccc2[nH]c(-c3cscn3)nc2c1 [THIABENDAZOLE]
2,Compound NOT metabolized,CCN(CC)CCNC(=O)c1cc(S(C)(=O)=O)ccc1OC [TIAPRIDE]

# Details: human gut metagenome, 24 h, 2 µM
# Remark: another data set of the same source
row,Bacterial Biotransformation,Structure (SMILES)
1,Compound NOT metabolized,c1ccc2[nH]c(-c3cscn3)nc2c1 [THIABENDAZOLE]
2,Compound metabolized,CCN(CC)CCNC(=O)c1cc(S(C)(=O)=O)ccc1OC [TIAPRIDE]

# Details: human gut metagenome, 24 h, 2 µM
# Remark: another data set of the same source
row,Bacterial Biotransformation,Structure (SMILES)
1,Compound NOT metabolized,c1ccc2[nH]c(-c3cscn3)nc2c1 [THIABENDAZOLE]
2,Compound NOT metabolized,CCN(CC)CCNC(=O)c1cc(S(C)(=O)=O)ccc1OC [TIAPRIDE]

# Details: human gut metagenome, 24 h, 2 µM
# Remark: another data set of the same source
row,Bacterial Biotransformation,Structure (SMILES)
1,Compound NOT metabolized,c1ccc2[nH]c(-c3cscn3)nc2c1 [THIABENDAZOLE]
2,Compound NOT metabolized,CCN(CC)CCNC(=O)c1cc(S(C)(=O)=O)ccc1OC [TIAPRIDE]

# Details: human gut metagenome, 24 h, 2 µM
# Remark: another data set of the same source
row,Bacterial Biotransformation,Structure (SMILES)
1,Compound NOT metabolized,c1ccc2[nH]c(-c3cscn3)nc2c1 [THIABENDAZOLE]
2,Compound NOT metabolized,CCN(CC)CCNC(=O)c1cc(S(C)(=O)=O)ccc1OC [TIAPRIDE]
